Literature values, collected in paper PMC6311893, “Computational prediction of plasma protein binding of cyclic peptides from small molecule experimental data using sparse modeling techniques” (BMC Bioinformatics, 2018).
Read-outs that look alike come from different tables or passages of the source. Positions of bridges follow the written chain, without caps; N, C: chain ends. Non-standard residues stand in square brackets, D forms with d. Residues, ends and D or L forms follow the SMILES beside them. *: point of attachment. Octanoyl(6-Me) = CCC(C)CCCCC(=O)*; Dab = NCC[CH](N)C(=O)O

Test system: plasma protein
Settings: cited from earlier work
[1] = fraction bound to plasma protein, small molecule dataset, sheet 1-SM, ref Ingle et al.
[2] = fraction bound to plasma protein, small molecule dataset, sheet 1-SM (Set Dte = test, Dtr = training), ref Ingle et al.

| SMILES | PPB (fb) [1] | also measured |
| --- | --- | --- |
| CC1(C)SC2C(NC(=O)C(N)c3cccc(N)c3)C(=O)N2C1C(=O)O (stereo not shown) [penicillin31] | 0.12 |  |
| CC1(C)SC2C(NC(=O)C(N)c3cccc(O)c3)C(=O)N2C1C(=O)O (stereo not shown) [penicillin32] | 0.17 |  |
| COc1ccc(C(N)C(=O)NC2C(=O)N3C2SC(C)(C)C3C(=O)O)cc1 (stereo not shown) [penicillin34] | 0.38 |  |
| CC1(C)SC2C(NC(=O)C(NC(=O)c3ccc(S(N)(=O)=O)cc3)c3ccccc3)C(=O)N2C1C(=O)O (stereo not shown) [penicillin35] | 0.42 |  |
| CC1(C)SC2C(NC(=O)C(NC(=O)c3ccccn3)c3ccccc3)C(=O)N2C1C(=O)O (stereo not shown) [penicillin36] | 0.63 |  |
| CC1(C)SC2C(NC(=O)C(O)c3ccccc3)C(=O)N2C1C(=O)O (stereo not shown) [penicillin37] | 0.53 |  |
| COC(C(=O)NC1C(=O)N2C1SC(C)(C)C2C(=O)O)c1ccccc1 (stereo not shown) [penicillin38] | 0.62 |  |
| COC(C(=O)NC1C(=O)N2C1SC(C)(C)C2C(=O)O)c1cccc(Br)c1 (stereo not shown) [penicillin39] | 0.88 |  |
| COC(C(=O)NC1C(=O)N2C1SC(C)(C)C2C(=O)O)c1cccc(Cl)c1 (stereo not shown) [penicillin40] | 0.83 |  |
| COC(C(=O)NC1C(=O)N2C1SC(C)(C)C2C(=O)O)c1c(Cl)cccc1Cl (stereo not shown) [penicillin41] | 0.84 |  |
| CC(Oc1ccc(Cl)cc1)C(=O)NC1C(=O)N2C1SC(C)(C)C2C(=O)O (stereo not shown) [penicillin42] | 0.92 |  |
| COC(C(=O)NC1C(=O)N2C1SC(C)(C)C2C(=O)O)c1cc(Cl)c(Cl)c(Cl)c1 (stereo not shown) [penicillin43] | 0.96 |  |
| COC(C(=O)NC1C(=O)N2C1SC(C)(C)C2C(=O)O)c1ccc(Cl)c(F)c1 (stereo not shown) [penicillin44] | 0.83 |  |
| COC(C(=O)NC1C(=O)N2C1SC(C)(C)C2C(=O)O)c1cccc(F)c1 (stereo not shown) [penicillin45] | 0.65 |  |
| COC(C(=O)NC1C(=O)N2C1SC(C)(C)C2C(=O)O)c1cccc([N+](=O)[O-])c1 (stereo not shown) [penicillin46] | 0.6 |  |
| CC(Oc1ccccc1)C(=O)NC1C(=O)N2C1SC(C)(C)C2C(=O)O (stereo not shown) [penicillin48] | 0.82 |  |
| CC(C)(Oc1ccccc1)C(=O)NC1C(=O)N2C1SC(C)(C)C2C(=O)O (stereo not shown) [penicillin49] | 0.92 |  |
| CCC(Oc1ccccc1)C(=O)NC1C(=O)N2C1SC(C)(C)C2C(=O)O (stereo not shown) [penicillin50] |  | PPB (fb) [2]: 0.86 |
| CC1(C)SC2C(NC(=O)C(Oc3ccccc3)c3ccccc3)C(=O)N2C1C(=O)O (stereo not shown) [penicillin51] | 0.97 |  |
| CC1(C)SC2C(NC(=O)COc3ccccc3F)C(=O)N2C1C(=O)O (stereo not shown) [penicillin52] | 0.91 |  |
| CC1(C)SC2C(NC(=O)COc3cccc(F)c3)C(=O)N2C1C(=O)O (stereo not shown) [penicillin53] | 0.83 |  |

| SMILES | PPB (fb) [1] | also measured |
| --- | --- | --- |
| CC1(C)SC2C(NC(=O)COc3ccc(F)cc3)C(=O)N2C1C(=O)O (stereo not shown) [penicillin54] | 0.81 |  |
| CC(Oc1ccccc1Cl)C(=O)NC1C(=O)N2C1SC(C)(C)C2C(=O)O (stereo not shown) [penicillin55] | 0.96 |  |
| COC(C(=O)NC1C(=O)N2C1SC(C)(C)C2C(=O)O)c1ccc(Cl)c(Cl)c1 (stereo not shown) [penicillin56] | 0.95 |  |
| CC(Oc1c(Cl)cccc1Cl)C(=O)NC1C(=O)N2C1SC(C)(C)C2C(=O)O (stereo not shown) [penicillin57] | 0.96 |  |
| CC(Oc1ccc(Cl)c(Cl)c1)C(=O)NC1C(=O)N2C1SC(C)(C)C2C(=O)O (stereo not shown) [penicillin58] | 0.97 |  |
| CC(Oc1cc(Cl)cc(Cl)c1)C(=O)NC1C(=O)N2C1SC(C)(C)C2C(=O)O (stereo not shown) [penicillin59] | 0.97 |  |
| CC(Oc1cccc(F)c1)C(=O)NC1C(=O)N2C1SC(C)(C)C2C(=O)O (stereo not shown) [penicillin61] | 0.84 |  |
| CC(Oc1ccc(F)cc1)C(=O)NC1C(=O)N2C1SC(C)(C)C2C(=O)O (stereo not shown) [penicillin62] | 0.8 |  |
| CCC(COc1c(Cl)cccc1Cl)C(=O)NC1C(=O)N2C1SC(C)(C)C2C(=O)O (stereo not shown) [penicillin63] | 0.95 |  |
| CC1(C)SC2C(NC(=O)c3cccc4ccccc34)C(=O)N2C1C(=O)O (stereo not shown) [penicillin64] |  | PPB (fb) [2]: 0.86 |
| CC1(C)SC2C(NC(=O)c3ccc4ccccc4c3)C(=O)N2C1C(=O)O (stereo not shown) [penicillin65] | 0.96 |  |
| Cc1ccc2ccccc2c1C(=O)NC1C(=O)N2C1SC(C)(C)C2C(=O)O (stereo not shown) [penicillin66] | 0.82 |  |
| COc1ccc2ccccc2c1C(=O)NC1C(=O)N2C1SC(C)(C)C2C(=O)O (stereo not shown) [penicillin67] | 0.8 |  |
| CC(Oc1ccc2ccccc2c1)C(=O)NC1C(=O)N2C1SC(C)(C)C2C(=O)O (stereo not shown) [penicillin69] | 0.95 |  |
| CC(Oc1cccc2ccccc12)C(=O)NC1C(=O)N2C1SC(C)(C)C2C(=O)O (stereo not shown) [penicillin70] | 0.97 |  |
| CC1(C)SC2C(NC(=O)Cc3cccs3)C(=O)N2C1C(=O)O (stereo not shown) [penicillin71] |  | PPB (fb) (plasma): 0.58 |
| CC1(C)SC2C(NC(=O)CC(N)c3cccs3)C(=O)N2C1C(=O)O (stereo not shown) [penicillin72] |  | PPB (fb) [2]: 0.32 |
| COC(CC(=O)NC1C(=O)N2C1SC(C)(C)C2C(=O)O)c1cccs1 (stereo not shown) [penicillin73] | 0.59 |  |
| COC(CC(=O)NC1C(=O)N2C1SC(C)(C)C2C(=O)O)c1ccc(Br)s1 (stereo not shown) [penicillin74] | 0.9 |  |
| COC(CC(=O)NC1C(=O)N2C1SC(C)(C)C2C(=O)O)c1ccc(Cl)s1 (stereo not shown) [penicillin75] |  | PPB (fb) [2]: 0.84 |
| COc1cnc2ccccc2c1C(=O)NC1C(=O)N2C1SC(C)(C)C2C(=O)O (stereo not shown) [penicillin76] | 0.57 |  |

| SMILES | PPB (fb) [1] | also measured |
| --- | --- | --- |
| COc1c(C)nc2ccccc2c1C(=O)NC1C(=O)N2C1SC(C)(C)C2C(=O)O (stereo not shown) [penicillin77] | 0.62 |  |
| CCOc1cnc2ccccc2c1C(=O)NC1C(=O)N2C1SC(C)(C)C2C(=O)O (stereo not shown) [penicillin78] | 0.7 |  |
| CCOc1c(C)nc2ccccc2c1C(=O)NC1C(=O)N2C1SC(C)(C)C2C(=O)O (stereo not shown) [penicillin79] | 0.74 |  |
| Oc1c(Cl)c(Cl)c(Cl)c(Cl)c1Cl [pentachlorophenol] |  | PPB (fb) (plasma): 0.99 |
| CNc1nc(N(C)C)nc(N(C)C)n1 [pentamethylmelamine] | 0.75 |  |
| N=C(N)c1ccc(OCCCCCOc2ccc(C(=N)N)cc2)cc1 [pentamidine] | 0.7 |  |
| OC[C@H]1O[C@@H](n2cnc3c2NC=NC[C@H]3O)C[C@@H]1O [pentostatin] | 0.03 |  |
| CC(=O)CCCCn1c(=O)c2c(ncn2C)n(C)c1=O [pentoxifylline] | 0 |  |
| CN1CCN(CCCN2c3ccccc3Sc3ccccc32)CC1 [perazine] | 0.95 |  |
| CCCN1C[C@H](CSC)C[C@@H]2c3cccc4[nH]cc(c34)C[C@H]21 [pergolide] | 0.9 |  |
| CCC[C@H](N[C@@H](C)C(=O)N1[C@H](C(=O)O)C[C@@H]2CCCC[C@@H]21)C(=O)OCC [perindopril] | 0.6 |  |
| [H]/N=C(/N)N/C(=N/[H])NCCc1ccccc1 [phenformin] | 0.16 |  |
| O=C1c2ccccc2C(=O)C1c1ccccc1 [phenindione] | 0.97 |  |
| CCOC(=O)C1(c2ccccc2)CCN(CCC(O)c2ccccc2)CC1 (stereo not shown) [phenoperidine] |  | PPB (fb) (plasma): 0.8 |
| CN1C(=O)CC(c2ccccc2)C1=O (stereo not shown) [phensuximide] | 0.07 |  |
| Cc1ccc(N(CC2=NCCN2)c2cccc(O)c2)cc1 [phentolamine] | 0.54 |  |
| CCCCC1C(=O)N(c2ccccc2)N(c2ccccc2)C1=O [phenylbutazone] | 0.98 |  |
| CNC[C@H](O)c1cccc(O)c1 [phenylephrine] |  | PPB (fb) [2]: 0.51 |
| O=C1NC(=O)C(c2ccccc2)(c2ccccc2)N1 [phenytoin] | 0.91 |  |
| CN1CC[C@]23c4c5ccc(OCCN6CCOCC6)c4O[C@H]2[C@@H](O)C=C[C@H]3[C@H]1C5 [pholcodine] |  | PPB (fb) (plasma): 0.24 |
| O=c1[nH]c2ccccc2n1C1CCN(CCCC(c2ccc(F)cc2)c2ccc(F)cc2)CC1 [pimozide] |  | PPB (fb) [2]: 0.95 |

| SMILES | PPB (fb) [1] | also measured |
| --- | --- | --- |
| CC(N/C(=N\C#N)Nc1ccncc1)C(C)(C)C (stereo not shown) [pinacidil] |  | PPB (fb) [2]: 0.4 |
| CCc1ccc(CCOc2ccc(CC3SC(=O)NC3=O)cc2)nc1 (stereo not shown) [pioglitazone] | 0.99 |  |
| CCn1cc(C(=O)O)c(=O)c2cnc(N3CCNCC3)nc21 [pipemidic acid] | 0.3 |  |
| CN1CCN(CC(=O)N2c3ccccc3C(=O)Nc3cccnc32)CC1 [pirenzepine] | 0.1 |  |
| CN1C(C(=O)Nc2ccccn2)=C(O)c2ccccc2S1(=O)=O [piroxicam] | 0.99 |  |
| CN1CCC(=C2c3ccccc3CCc3sccc32)CC1 [pizotyline] |  | PPB (fb) [2]: 0.91 |
| CCC(C)CCCCC(=O)NC(CCN)C(=O)NC(C(=O)NC(CCN)C(=O)NC1CCNC(=O)C(C(C)O)NC(=O)C(CCN)NC(=O)C(CCN)NC(=O)C(CC(C)C)NC(=O)C(Cc2ccccc2)NC(=O)C(CCN)NC1=O)C(C)O (stereo not shown) [polymyxin-B] ({Octanoyl(6-Me)}-[Dab]T[Dab][Dab][Dab]FL[Dab][Dab]T; lactam 4-C; configuration not given here) |  | PPB (fb) (human, plasma): 0.1 |
| CC(=O)Nc1ccc(OCC(O)CNC(C)C)cc1 (stereo not shown) [practolol] | 0.3 |  |
| C[n+]1ccccc1/C=N/O [pralidoxime chloride] | 0.05 |  |
| CCCN[C@H]1CCc2nc(N)sc2C1 [pramipexole] | 0.15 |  |
| O=C1CN=C(c2ccccc2)c2cc(Cl)ccc2N1CC1CC1 [prazepam] |  | PPB (fb) (plasma): 0.97 |
| O=C(C1CCCCC1)N1CC(=O)N2CCc3ccccc3C2C1 (stereo not shown) [praziquantel] | 0.83 |  |
| CC(C)NC[C@H](O)COc1ccc(O)cc1 [prenalterol] | 0.04 |  |
| CC(Cc1ccccc1)NCCC(c1ccccc1)c1ccccc1 (stereo not shown) [prenylamine] | 0.97 |  |
| COc1cc(NC(C)CCCN)c2ncccc2c1 (stereo not shown) [primaquine] | 0.8 |  |
| CCC1(c2ccccc2)C(=O)NCNC1=O [primidone] | 0.2 |  |
| CCN(CC)CCOC(=O)c1ccc(N)cc1 [procaine] | 0.06 |  |
| Oc1cc(O)c2c(c1)O[C@H](c1ccc(O)c(O)c1)[C@H](O)[C@H]2c1c(O)cc(O)c2c1O[C@H](c1ccc(O)c(O)c1)[C@@H](O)C2 [procyanidin B1] |  | PPB (fb) (plasma): 0.73 |
| CC(=O)[C@H]1CC[C@H]2[C@@H]3CCC4=CC(=O)CC[C@]4(C)[C@H]3CC[C@]12C [progesterone] |  | PPB (fb) [2]: 0.97 |
